Assay results taken from patent US9242981B2, “Fused pyrazole derivatives as novel ERK inhibitors” (Merck Sharp & Dohme Corp., priority 2010, dated 2016).

target: Mouse ERK2 protein (Mus musculus (Mouse), UniProt P63085); experiment: Coupled MEK1/ERK2 IMAP assay or Active ERK2 IMAP assay; type: biochemical; conditions: Table 1, class symbols, 30 μM ATP
Sequence (P63085 whole entry): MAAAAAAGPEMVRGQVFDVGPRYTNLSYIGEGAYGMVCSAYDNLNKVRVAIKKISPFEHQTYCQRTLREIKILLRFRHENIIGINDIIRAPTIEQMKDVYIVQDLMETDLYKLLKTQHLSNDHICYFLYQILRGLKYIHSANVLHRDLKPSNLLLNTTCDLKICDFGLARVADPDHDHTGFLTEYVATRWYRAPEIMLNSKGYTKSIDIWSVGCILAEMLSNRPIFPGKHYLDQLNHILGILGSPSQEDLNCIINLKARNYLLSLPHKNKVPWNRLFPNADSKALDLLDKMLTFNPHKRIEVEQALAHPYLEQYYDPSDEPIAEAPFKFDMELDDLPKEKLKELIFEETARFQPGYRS

IC50 [nM] | Compound
21 to 100 | Cn1ncc2cc(-c3n[nH]c4c3CN(C(=O)N[C@@H]3CCCN(Cc5c(F)cccc5F)C3)CC4)ccc21 [Compound 134, N-[1-[(2,6-difluorophenyl)-methyl]-3(R)-piperidinyl]-1,4,6,7-tetrahydro-3-(1-methyl-1H-indazol-5-yl)-5H-pyrazolo[4,3-c]pyridine-5-carboxamide]
< 20 | COc1cccc(F)c1CN1CCC(F)C(NC(=O)N2CCc3[nH]nc(-c4ccnc(C)c4)c3C2)C1 (stereo not drawn) [Compound 135, N-[4-fluoro-1-[(2-fluoro-6-methoxyphenyl)methyl]-3-piperidinyl]-1,4,6,7-tetrahydro-3-(2-methyl-4-pyridinyl)-5H-pyrazolo[4,3-c]pyridine-5-carboxamide]
101 to 1000 | O=C(N[C@@H]1CCCN(Cc2csc3ccccc23)C1)N1CCc2[nH]nc(-c3ccc(-c4ccccc4)nc3)c2C1 [Compound 136, N-[1-(benzo[b]thien-3-ylmethyl)-3(R)-piperidinyl]-1,4,6,7-tetrahydro-3-(6-phenyl-3-pyridinyl)-5H-pyrazolo[4,3-c]pyridine-5-carboxamide]
101 to 1000 | O=C(N[C@@H]1CCCN(Cc2c(F)cccc2F)C1)N1CCc2[nH]nc(-c3ccc(-c4ccccc4)nc3)c2C1 [Compound 137, N-[1-[(2,6-difluorophenyl)-methyl]-3(R)-piperidinyl]-1,4,6,7-tetrahydro-3-(6-phenyl-3-pyridinyl)-5H-pyrazolo[4,3-c]pyridine-5-carboxamide]
101 to 1000 | COc1cccc(F)c1CN1CCC[C@@H](NC(=O)N2CCc3[nH]nc(-c4ccc(-c5ccccc5)nc4)c3C2)C1 [Compound 138, N-[1-[(2-fluoro-6-methoxyphenyl)methyl]-3(R)-piperidinyl]-1,4,6,7-tetrahydro-3-(6-phenyl-3-pyridinyl)-5H-pyrazolo[4,3-c]pyridine-5-carboxamide]
101 to 1000 | Cc1cccc(C)c1CN1CC[C@@H](NC(=O)N2CCc3[nH]nc(-c4ccc(-c5ccccc5)nc4)c3C2)C1 [Compound 139, N-[1-[(2,6-dimethylphenyl)-methyl]-3(R)-pyrrolidinyl]-1,4,6,7-tetrahydro-3-(6-phenyl-3-pyridinyl)-5H-pyrazolo[4,3-c]pyridine-5-carboxamide]
< 20 | Cn1ncc2cc(-c3n[nH]c4c3CN(C(=O)NC3CCC5CCC3N5Cc3ccccc3F)CC4)ccc21 (stereo not drawn) [Compound 140, N-[8-[(2-fluorophenyl)methyl]-8-azabicyclo[3.2.1]oct-2-yl]-1,4,6,7-tetrahydro-3-(1-methyl-1H-indazol-5-yl)-5H-pyrazolo[4,3-c]pyridine-5-carboxamide]
101 to 1000 | Cc1nc2cc(-c3n[nH]c4c3CN(C(=O)N[C@@H]3CCCN(Cc5cccc6cnccc56)C3)CC4)ccc2o1 [Compound 142, 1,4,6,7-tetrahydro-N-[1-(5-isoquinolinylmethyl)-3(R)-pipendinyl]-3-(2-methyl-5-benzoxazolyl)-5H-pyrazolo[4,3-c]pyridine-5-carboxamide]
101 to 1000 | Cc1nc2cc(-c3n[nH]c4c3CN(C(=O)N[C@@H]3CCCN(Cc5ccnc6ccccc56)C3)CC4)ccc2o1 [Compound 144, 1,4,6,7-tetrahydro-3-(2-methyl-5-benzoxazolyl)-N-[1-(4-quinolinylmethyl)-3(R)-piperidinyl]-5H-pyrazolo[4,3-c]pyridine-5-carboxamide]
21 to 100 | Cc1nc2cc(-c3n[nH]c4c3CN(C(=O)N[C@@H]3CCCN(Cc5cccc6ncccc56)C3)CC4)ccc2o1 [Compound 146, 1,4,6,7-tetrahydro-3-(2-methyl-5-benzoxazolyl)-N-[1-(5-quinolinylmethyl)-3(R)-piperidinyl]-5H-pyrazolo[4,3-c]pyridine-5-carboxamide]
21 to 100 | Cc1nc2cc(-c3n[nH]c4c3CN(C(=O)N[C@@H]3CCCN(Cc5cn(C)c6ccccc56)C3)CC4)ccc2o1 [Compound 148, 1,4,6,7-tetrahydro-3-(2-methyl-5-benzoxazolyl)-N-[1-[(1-methyl-1H-indol-3-yl)methyl]-3(R)-piperidinyl]-5H-pyrazolo[4,3-c]pyridine-5-carboxamide]
< 20 | COc1cccc(F)c1CN1CCC(F)C(NC(=O)N2CCc3[nH]nc(-c4ccc5nccn5c4)c3C2)C1 (stereo not drawn) [Compound 150, N-[4-fluoro-1-[(2-fluoro-6-methoxyphenyl)methyl]-3-piperidinyl]-1,4,6,7-tetrahydro-3-imidazo[1,2-a]pyridin-6-yl-5H-pyrazolo[4,3-c]pyridine-5-carboxamide]
< 20 | Cc1nc2cc(-c3n[nH]c4c3CN(C(=O)N[C@@H]3CCCN(Cc5csc6ccccc56)C3)CC4)ccc2o1 [Compound 152, N-[1-(benzo[b]thien-3-ylmethyl)-3(R)-piperidinyl]-1,4,6,7-tetrahydro-3-(2-methyl-5-benzoxazolyl)-5H-pyrazolo[4,3-c]pyridine-5-carboxamide]
< 20 | Cc1nc2cc(-c3n[nH]c4c3CN(C(=O)N[C@@H]3CCCN(Cc5ccc6ccccc6c5)C3)CC4)ccc2o1 [Compound 154, 1,4,6,7-tetrahydro-3-(2-methyl-5-benzoxazolyl)-N-[1-(2-naphthalenylmethyl)-3(R)-piperidinyl]-5H-pyrazolo[4,3-c]pyridine-5-carboxamide]
101 to 1000 | COc1cccc(F)c1CN1[C@H]2CC[C@H](NC(=O)N3CCc4[nH]nc(-c5ccnc(C)c5)c4C3)[C@@H]1CC2 [Compound 160, N-[endo-8-[(2-fluoro-6-methoxyphenyl)methyl]-8-azabicyclo[3.2.1]oct-2-yl]-1,4,6,7-tetrahydro-3-(2-methyl-4-pyridinyl)-5H-pyrazolo[4,3-c]pyridine-5-carboxamide]
21 to 100 | COc1cccc(F)c1CN1[C@H]2CC[C@@H](NC(=O)N3CCc4[nH]nc(-c5ccnc(C)c5)c4C3)[C@@H]1CC2 [Compound 162, N-[exo-8-[(2-fluoro-6-methoxyphenyl)methyl]-8-azabicyclo[3.2.1]oct-2-yl]-1,4,6,7-tetrahydro-3-(2-methyl-4-pyridinyl)-5H-pyrazolo[4,3-c]pyridine-5-carboxamide]
101 to 1000 | Cc1cc(-c2n[nH]c3c2CN(C(=O)N[C@H]2CC[C@H]4CC[C@@H]2N4Cc2c(F)cccc2F)CC3)ccn1 [Compound 164, N-[endo-8-[(2,6-difluorophenyl)methyl]-8-azabicyclo[3.2.1]oct-2-yl]-1,4,6,7-tetrahydro-3-(2-methyl-4-pyridinyl)-5H-pyrazolo[4,3-c]pyridine-5-carboxamide]
101 to 1000 | Cc1cc(-c2n[nH]c3c2CN(C(=O)N[C@H]2CC[C@H]4CC[C@@H]2N4Cc2ccccc2F)CC3)ccn1 [Compound 166, N-[endo-8-[(2-fluorophenyl)methyl]-8-azabicyclo[3.2.1]oct-2-yl]-1,4,6,7-tetrahydro-3-(2-methyl-4-pyridinyl)-5H-pyrazolo[4,3-c]pyridine-5-carboxamide]
< 20 | Cc1cc(-c2n[nH]c3c2CN(C(=O)N[C@@H]2CC[C@H]4CC[C@@H]2N4Cc2ccccc2F)CC3)ccn1 [Compound 168, N-[exo-8-[(2-fluorophenyl)methyl]-8-azabicyclo[3.2.1]oct-2-yl]-1,4,6,7-tetrahydro-3-(2-methyl-4-pyridinyl)-5H-pyrazolo[4,3-c]pyridine-5-carboxamide]
< 20 | COc1cccc(F)c1CN1CCC[C@@H](NC(=O)N2CCc3[nH]nc(-c4ccc5nc(C)sc5c4)c3C2)C1 [Compound 170, N-[1-[(2-fluoro-6-methoxyphenyl)methyl]-3(R)-piperidinyl]-1,4,6,7-tetrahydro-3-(2-methyl-6-benzothiazolyl)-5H-pyrazolo[4,3-c]pyridine-5-carboxamide]
< 20 | Cc1nc2ccc(-c3n[nH]c4c3CN(C(=O)N[C@@H]3CCCN(Cc5c(F)cccc5F)C3)CC4)cc2s1 [Compound 172, N-[1-[(2,6-difluorophenyl)methyl]-3(R)-piperidinyl]-1,4,6,7-tetrahydro-3-(2-methyl-6-benzothiazolyl)-5H-pyrazolo[4,3-c]pyridine-5-carboxamide]
21 to 100 | O=C(N[C@@H]1CCCN(CCc2ccccc2)C1)N1CCc2[nH]nc(-c3ccncc3)c2C1 [Compound 173, 1,4,6,7-tetrahydro-N-[1-(2-phenylethyl)-3(R)-piperidinyl]-3-(4-pyridinyl)-5H-pyrazolo[4,3-c]pyridine-5-carboxamide]
< 20 | Cc1nc2ccc(-c3n[nH]c4c3CN(C(=O)N[C@@H]3CCCN(Cc5csc6ccccc56)C3)CC4)cc2s1 [Compound 174, N-[1-(benzo[b]thien-3-ylmethyl)-3(R)-piperidinyl]-1,4,6,7-tetrahydro-3-(2-methyl-6-benzothiazolyl)-5H-pyrazolo[4,3-c]pyridine-5-carboxamide]
< 20 | Cc1nc2ccc(-c3n[nH]c4c3CN(C(=O)N[C@@H]3CCCN(Cc5coc6ccccc56)C3)CC4)cc2s1 [Compound 176, N-[1-(3-benzofuranylmethyl)-3(R)-piperidinyl]-1,4,6,7-tetrahydro-3-(2-methyl-6-benzothiazolyl)-5H-pyrazolo[4,3-c]pyridine-5-carboxamide]
< 20 | O=C(N[C@@H]1CCCN(Cc2ccccc2)C1)N1CCc2[nH]nc(-c3ccc4c(c3)CCO4)c2C1 [Compound 177, 3-(2,3-dihydro-5-benzofuranyl)-1,4,6,7-tetrahydro-N-[1-(phenylmethyl)-3(R)-piperidinyl]-5H-pyrazolo[4,3-c]pyridine-5-carboxamide]
< 20 | Cc1cc(-c2n[nH]c3c2CN(C(=O)N[C@@H]2CC[C@H]4CC[C@@H]2N4Cc2c(F)cccc2F)CC3)ccn1 [Compound 178, N-[exo-8-[(2,6-difluorophenyl)methyl]-8-azabicyclo[3.2.1]oct-2-yl]-1,4,6,7-tetrahydro-3-(2-methyl-4-pyridinyl)-5H-pyrazolo[4,3-c]pyridine-5-carboxamide]
21 to 100 | O=C(N[C@@H]1CCCN(Cc2c(F)cccc2F)C1)N1CCc2[nH]nc(-c3ccc4c(c3)CCO4)c2C1 [Compound 179, N[1-[(2,6-difluorophenyl)methyl]-3(R)-piperidinyl]-3-(2,3-dihydro-5-benzofuranyl)-1,4,6,7-tetrahydro-5H-pyrazolo[4,3-c]pyridine-5-carboxamide]
